In brackets after ≈: the same amount, converted by molar mass. Positions of bridges follow the written chain, without caps; N, C: chain ends. Residues, ends and D or L forms follow the SMILES beside them.
Experiments:
[1] = tested on: Mycobacterium tuberculosis mc^26230

SMILES	M. tuberculosis mc^26230 MIC [1] [µM]	P. aeruginosa MIC (P. aeruginosa) [µM]	M. smegmatis mc^2155 MIC (M. smegmatis mc^2155) [µM]	V. alginolyticus MIC (Vibrio alginolyticus) [µM]	MIC (M. smegmatis mc^2155) [µM]	MIC (Vibrio alginolyticus) [µM]
CSCC[C@@H]1NC(=O)[C@H](Cc2ccccc2)NC(=O)[C@@H]2CSSC[C@H](NC(=O)[C@H](C(C)C)NC(=O)[C@H](CCCNC(=N)N)NC(=O)[C@H](C(C)C)NC(=O)[C@@H](NC(=O)[C@@H](NC(=O)[C@@H](N)CCCNC(=N)N)C(C)C)CSSC[C@@H](C(=O)N[C@@H](Cc3c[nH]c4ccccc34)C(=O)N[C@@H](CC(N)=O)C(=O)N[C@H](C(=O)O)[C@@H](C)O)NC(=O)[C@H](CCCCN)NC1=O)C(=O)N[C@@H](CCCNC(=N)N)C(=O)N[C@@H](CC(N)=O)C(=O)NCC(=O)N[C@@H](Cc1ccccc1)C(=O)N2 [V9, RVC1VRVC2RNGFC3FMKC4WNT] (H-RVCVRVCRNGFCFMKCWNT-OH; disulfide 3-16, 7-12; N-terminus and C-terminus assumed)	5.1 to 9.1	1.25 to 2.5	1.02 to 3.31	0.125 to 0.312	–	–
CC[C@H](C)[C@@H]1NC(=O)[C@H](Cc2ccccc2)NC(=O)[C@H](CC(C)C)NC(=O)[C@@H]2CSSC[C@H](NC(=O)[C@H](CCCNC(=N)N)NC1=O)C(=O)N[C@@H](Cc1ccccc1)C(=O)N[C@@H](CCSC)C(=O)N[C@@H](CCCCN)C(=O)N[C@H](C(=O)N[C@@H](Cc1c[nH]c3ccccc13)C(=O)N[C@@H](CC(N)=O)C(=O)N[C@H](C(=O)O)[C@@H](C)O)CSSC[C@H](NC(=O)[C@H](Cc1ccccc1)NC(=O)[C@@H](N)CCCNC(=N)N)C(=O)N[C@@H](C(C)C)C(=O)N[C@@H](CCCNC(=N)N)C(=O)N[C@@H](C(C)C)C(=O)N2 [V5, RFC1VRVC2LFIRC3FMKC4WNT] (H-RFCVRVCLFIRCFMKCWNT-OH; disulfide 3-16, 7-12; N-terminus and C-terminus assumed)	5.3 to 7.9	>20	3.06 to 8.40	0.625 to 1.25	–	–
CC[C@H](C)[C@H](NC(=O)[C@H](CCCNC(=N)N)NC(=O)[C@@H](NC(=O)[C@H](CS)NC(=O)[C@@H](NC(=O)[C@@H](N)CCCNC(=N)N)C(C)C)C(C)C)C(=O)N[C@@H](CS)C(=O)N[C@@H](CCCNC(=N)N)C(=O)N[C@@H](CC(N)=O)C(=O)NCC(=O)N[C@@H](CCCNC(=N)N)C(=O)N[C@@H](CS)C(=O)N[C@@H](Cc1ccc(O)cc1)C(=O)N[C@@H](CCCNC(=N)N)C(=O)N[C@@H](CCCNC(=N)N)C(=O)N[C@@H](CS)C(=O)N[C@@H](Cc1c[nH]c2ccccc12)C(=O)N[C@@H](CC(N)=O)C(=O)N[C@H](C(=O)O)[C@@H](C)O [Linear unfolded analogue of Michelicin] (H-RVCVRICRNGRCYRRCWNT-OH; N-terminus and C-terminus assumed)	–	–	–	–	1.25 (≈ 3.02 µg/mL)	0.625 (≈ 1.51 µg/mL)
CSCC[C@@H]1NC(=O)[C@H](Cc2ccccc2)NC(=O)[C@@H]2CSSC[C@H](NC(=O)[C@H](C(C)C)NC(=O)[C@H](CCCNC(=N)N)NC(=O)[C@H](C(C)C)NC(=O)[C@@H](NC(=O)[C@@H](NC(=O)[C@H](CO)NC(=O)[C@@H](NC(=O)[C@H](C)NC(=O)[C@H](CCCCN)NC(=O)[C@@H](N)CCCNC(=N)N)C(C)C)[C@@H](C)O)CSSC[C@@H](C(=O)N[C@@H](Cc3c[nH]c4ccccc34)C(=O)N[C@@H](CC(N)=O)C(=O)N[C@H](C(=O)O)[C@@H](C)O)NC(=O)[C@H](CCCCN)NC1=O)C(=O)N[C@@H](CCCNC(=N)N)C(=O)N[C@@H](CC(N)=O)C(=O)NCC(=O)N[C@@H](Cc1ccccc1)C(=O)N2 [V7, RKAVSTC2VRVC3RNGFC4FMKCWNT] (H-RKAVSTCVRVCRNGFCFMKCWNT-OH; disulfide 7-20, 11-16 (inferred); N-terminus and C-terminus assumed)	>30	2.5 to 5	9.22 to 13.1	0.125 to 0.312	–	–
CC[C@H](C)[C@@H]1NC(=O)[C@@H]2CSSC[C@H](NC(=O)[C@H](C(C)C)NC(=O)[C@H](CCCNC(=N)N)NC(=O)[C@H](C(C)C)NC(=O)[C@@H](NC(=O)[C@H](Cc3ccccc3)NC(=O)[C@@H](N)CCCNC(=N)N)CSSC[C@@H](C(=O)N[C@@H](Cc3c[nH]c4ccccc34)C(=O)N[C@@H](CC(N)=O)C(=O)N[C@H](C(=O)O)[C@@H](C)O)NC(=O)[C@H](CCCCN)NC(=O)[C@H](CCSC)NC1=O)C(=O)N[C@@H](CCCNC(=N)N)C(=O)N[C@@H](CC(N)=O)C(=O)NCC(=O)N[C@@H](CCCNC(=N)N)C(=O)N2 [V2, RFC1VRVC2RNGRC3IMKC4WNT] (H-RFCVRVCRNGRCIMKCWNT-OH; disulfide 3-16, 7-12; N-terminus and C-terminus assumed)	19.7 to 30.0	2.5 to 5	0.72 to 2.95	0.312 to 0.625	–	–
CC(C)[C@@H]1NC(=O)[C@H](CCCNC(=N)N)NC(=O)[C@H](C(C)C)NC(=O)[C@@H](NC(=O)[C@@H](NC(=O)[C@@H](N)CCCNC(=N)N)C(C)C)CSSC[C@@H](C(=O)N[C@@H](Cc2c[nH]c3ccccc23)C(=O)N[C@@H](CC(N)=O)C(=O)N[C@H](C(=O)O)[C@@H](C)O)NC(=O)[C@H](CCCNC(=N)N)NC(=O)[C@H](CCCNC(=N)N)NC(=O)[C@H](Cc2ccc(O)cc2)NC(=O)[C@@H]2CSSC[C@H](NC1=O)C(=O)N[C@@H](CCCNC(=N)N)C(=O)N[C@@H](CC(N)=O)C(=O)NCC(=O)N[C@@H](CCCNC(=N)N)C(=O)N2 [V1, RVC1VRVC2RNGRC3YRRC4WNT] (H-RVCVRVCRNGRCYRRCWNT-OH; disulfide 3-16, 7-12; N-terminus and C-terminus assumed)	29.8 to 30.2	2.5 to 5	1.15 to 4.21	0.125 to 0.312	–	–
CC[C@H](C)[C@H](NC(=O)[C@@H](N)CCCNC(=N)N)C(=O)N[C@H]1CSSC[C@@H](C(=O)N[C@@H](Cc2c[nH]c3ccccc23)C(=O)N[C@@H](CC(N)=O)C(=O)N[C@H](C(=O)O)[C@@H](C)O)NC(=O)[C@H](CCCCN)NC(=O)[C@H](CCSC)NC(=O)[C@H](Cc2ccccc2)NC(=O)[C@@H]2CSSC[C@H](NC(=O)[C@H](C(C)C)NC(=O)[C@H](CCCNC(=N)N)NC(=O)[C@H](C(C)C)NC1=O)C(=O)N[C@@H](CCCNC(=N)N)C(=O)N[C@@H](CC(N)=O)C(=O)NCC(=O)N[C@@H](CCCNC(=N)N)C(=O)N2 [V6, RIC1VRVC2RNGRC3FMKC4WNT] (H-RICVRVCRNGRCFMKCWNT-OH; disulfide 3-16, 7-12; N-terminus and C-terminus assumed)	>30	>5	1.27 to 2.96	0.125 to 0.312	–	–
CC[C@H](C)[C@@H]1NC(=O)[C@H](CCCNC(=N)N)NC(=O)[C@H](C(C)C)NC(=O)[C@@H](NC(=O)[C@@H](NC(=O)[C@@H](N)CCCNC(=N)N)C(C)C)CSSC[C@@H](C(=O)N[C@@H](Cc2c[nH]c3ccccc23)C(=O)N[C@@H](CC(N)=O)C(=O)N[C@H](C(=O)O)[C@@H](C)O)NC(=O)[C@H](CCCCN)NC(=O)[C@H](CCSC)NC(=O)[C@H](Cc2ccccc2)NC(=O)[C@@H]2CSSC[C@H](NC1=O)C(=O)N[C@@H](CCCNC(=N)N)C(=O)N[C@@H](CC(N)=O)C(=O)NCC(=O)N[C@@H](Cc1ccccc1)C(=O)N2 [V8, RVC1VRIC2RNGFC3FMKC4WNT] (H-RVCVRICRNGFCFMKCWNT-OH; disulfide 3-16, 7-12; N-terminus and C-terminus assumed)	7.3 to 11.9	1.25 to 2.5	0.72 to 3.92	0.125 to 0.312	–	–

From patent US20250051403A1, “ANTIMICROBIAL PEPTIDES, VARIANTS AND CHEMICAL ANALOGUES THEREOF AND THEIR USES” (priority 2021, published 2025)
